Test results as given in the NIST ThermoML archive (doi:10.1021/je100949x).

Assay: xn = mol fraction of the nth substance listed
Conditions: Maximal bubble pressure

O [water] + CCCCn1cc[n+](C)c1.[Cl-]
x2 = 0
Conditions | surface tension liquid-gas [mN/m]
298.1 K | 71.9
298.9 K | 71.7
299.7 K | 71.6

CCCCn1cc[n+](C)c1.F[B-](F)(F)F [1-butyl-3-methylimidazolium tetrafluoroborate] + O
Conditions | surface tension liquid-gas [mN/m]
298 K, x1 = 0.053 | 47.7
298 K, x1 = 0.114 | 48.1
298.1 K, x1 = 0.014 | 52.4
298.1 K, x1 = 0.046 | 47.8
298.2 K, x1 = 0.007 | 60.4
298.2 K, x1 = 0.021 | 49.2
298.3 K, x1 = 0.029 | 47.8
298.3 K, x1 = 0.033 | 47.9
298.3 K, x1 = 0.068 | 48.1
298.3 K, x1 = 0.186 | 48.1
298.4 K, x1 = 0.004 | 60.8
298.4 K, x1 = 0.019 | 48.9
298.4 K, x1 = 0.028 | 48
298.4 K, x1 = 0.114 | 48.1
298.4 K, x1 = 0.17 | 48.1
298.4 K, x1 = 0.228 | 47.9
298.5 K, x1 = 0.006 | 56.1
298.5 K, x1 = 0.009 | 53.2
298.5 K, x1 = 0.013 | 50.7
298.5 K, x1 = 0.109 | 48.4
298.5 K, x1 = 0.163 | 48.2
298.6 K, x1 = 0.026 | 48.5
298.6 K, x1 = 0.061 | 48.4
298.6 K, x1 = 0.233 | 47.9
298.6 K, x1 = 0.292 | 47.6
298.6 K, x1 = 0.355 | 47.5
298.7 K, x1 = 0.014 | 50.7
298.7 K, x1 = 0.05 | 48.3
298.7 K, x1 = 0.42 | 47.4
298.8 K, x1 = 0.01 | 53.2
298.8 K, x1 = 0.319 | 47.7
298.9 K, x1 = 0.392 | 47.5
298.9 K, x1 = 0.435 | 47.2
299 K, x1 = 0.004 | 60.3
299.2 K, x1 = 0.51 | 47.3

CCCCn1cc[n+](C)c1.[Cl-] [1-butyl-3-methylimidazolium chloride] + O
Conditions | surface tension liquid-gas [mN/m]
298.1 K, x1 = 0.011 | 66.2
298.1 K, x1 = 0.015 | 65.5
298.1 K, x1 = 0.018 | 64.7
298.2 K, x1 = 0.004 | 69.9
298.2 K, x1 = 0.025 | 64.5
298.2 K, x1 = 0.031 | 63.7
298.3 K, x1 = 0.007 | 68.8
298.3 K, x1 = 0.053 | 61.7
298.3 K, x1 = 0.073 | 59.9
298.7 K, x1 = 0.142 | 56.7
298.9 K, x1 = 0.112 | 57.6
298.9 K, x1 = 0.226 | 55
299 K, x1 = 0.188 | 55.4
299.1 K, x1 = 0.004 | 68.9
299.2 K, x1 = 0.009 | 66.5
299.2 K, x1 = 0.016 | 65
299.2 K, x1 = 0.023 | 63.8
299.2 K, x1 = 0.303 | 55
299.3 K, x1 = 0.03 | 62.8
299.5 K, x1 = 0.033 | 63.3
299.5 K, x1 = 0.037 | 63
299.5 K, x1 = 0.374 | 54.9
299.6 K, x1 = 0.028 | 64.1
299.7 K, x1 = 0.002 | 70.5
299.7 K, x1 = 0.011 | 67.1
299.7 K, x1 = 0.017 | 65.6
299.9 K, x1 = 0.067 | 59.3
300 K, x1 = 0.048 | 61
300.1 K, x1 = 0.422 | 54.3
300.3 K, x1 = 0.077 | 59.6
300.3 K, x1 = 0.11 | 57
300.4 K, x1 = 0.089 | 57.9
300.4 K, x1 = 0.292 | 53.7
300.5 K, x1 = 0.139 | 55.8
300.5 K, x1 = 0.198 | 54.9
300.6 K, x1 = 0.134 | 55.9
300.6 K, x1 = 0.48 | 54.1
300.7 K, x1 = 0.163 | 55.4
300.9 K, x1 = 0.36 | 53.8
301.1 K, x1 = 0.225 | 54.4
301.2 K, x1 = 0.268 | 54.8
301.6 K, x1 = 0.329 | 54.6
302.1 K, x1 = 0.398 | 54.4

O [water] + CCCCn1cc[n+](C)c1.F[B-](F)(F)F
x2 = 0
Conditions | surface tension liquid-gas [mN/m]
298.1 K | 72
298.5 K | 71.9
298.9 K | 71.8
